For data set [1], the target named is Isdop1 (Ixodes scapularis, UniProt A0ACM8FJJ0). Nature of the data set: cAMP accumulation confirmation assay, cells stably expressing Isdop1. The data set is classed as cell-based. A general note: cAMP levels reflect the balance of adenylyl cyclase and phosphodiesterase activity.
In data set [2] the target is T1, AaDOP2 (Aedes aegypti, UniProt H6D5H2). The note with it: for IC50: read-out: Affinity (Aedesdop2), values equal the Table 3 IC50 values.
The test system of data set [3] is Ae. aegypti L3 larvae. As to the kind of experiment: whole plant or invertebrate. The settings on record: Aedes aegypti.
The target of data set [4] is T1, AaDOP2. Nature of the data set: LOPAC1280 antagonist screen in HEK-CRELuc-Aadop2 cells. The settings on record: 10 μM compound, 300 nM dopamine, quadruplicate. The data set is classed as cell-based.
For data set [5], the target named is T2, human D1 dopamine receptor (hD1) (Homo sapiens, UniProt P21728).
T2 construct: expressed in transfected cells
As to the kind of experiment: cAMP accumulation secondary assay, hD1-expressing cells. Type of data set: cell-based, H. sapiens.

Data set [6] has as its target T1, AaDOP2. As to the kind of experiment: cell-based.
Data set [7] concerns the target T3, Isdop2 (Ixodes scapularis, UniProt A0ACM8DGL0). As to the kind of experiment: cell-based. The note with it: read-out: % Inhibition (of response to dopamine), Isdop2 screen.
Data set [8] deals with T3, Isdop2. As to the kind of experiment: cAMP accumulation confirmation assay, cells stably expressing Isdop2. Type of data set: cell-based.
The test system of data set [9] is Ae. aegypti L3 larvae. The note with it: 400 μM, three independent experiments.
The test system of data set [10] is Ae. aegypti larvae. As to the kind of experiment: whole plant or invertebrate. The data set is classed as in vivo. The settings on record: Aedes aegypti, read-out: average larval mortality. The protocol:
Single dose-point and dose response in vivo mosquito bioassays were used to assess the toxicity of selected AaDop2 receptor antagonists identified in the chemical screen. Larvae of Ae. aegypti (Liverpool strain) were reared under standard laboratory conditions on a 12 hr day/night cycle at 75% RH and 28° C., and bioassays were conducted at room temperature (22-24° C.). Larvae were transferred from standard rearing trays into six-well tissue culture plates (Corning, Inc. Corning, N.Y.) using a small plastic pipette. Ten L4-stage larvae were included per well, each containing five ml of de-ionized water and an assigned drug concentration. Controls were conducted similarly but lacked a drug treatment. Bioassays employed a double-blind experimental design, and larval mortality was scored 24 hr following administration of drugs. Single dose-point assays were conducted using 400 μM drug and included three biological replicates each consisting of 100 larvae.

Data set [11] concerns adult Reticulitermes flavipes. As to the kind of experiment: Termite immersion assay. The data set is classed as in vivo. The settings on record: for mortality at 100 µM / mortality at 100000 µM: Reticulitermes flavipes, immersion, adult termite; for mortality at 100 µM: 100 µM compound (Fipronil 500 μM); for mortality at 100000 µM: 100 mM compound (Fipronil 500 μM). The source says:
A series of whole organism bioassays was developed to further evaluate the toxicity of chemistries to a range of agricultural, veterinary and public health pests and non-target insects (Tables 12 and 13). These assays are designed to rapidly explore the biological activity spectrum of chemistries as well as to facilitate initial investigations of the mode of action of insecticidal compounds. Briefly, assays were developed for the German cockroach (Blatella germanica, urban pest), termite (Reticulitermes flavipes; urban pest), lone star tick (Amblyomma americana; veterinary and public health pest), soybean aphid (Aphis glycines, agricultural pest) and honeybee (Apis mellifera; beneficial, non-target insect). The assays were designed to test the toxicity and speed of kill of multiple chemistries on contact. Each of these assays was performed as a single point dose experiment in triplicate using either topical application of compound to the ventral thorax (1 μl of a […] compound solution in 1:1 v:v DMSO:EtOH vehicle; 50-80 μg effective dose depending on compound) as is the case for our cockroach and honeybee assays, or 10 second immersion in a solution of the compound diluted in water or DMSO:[…] The assays were conducted in 24-well plate format with mortality assessment following incubation at 22° C. as described above. Commercial insecticides were incorporated in these assays to provide a positive control and permit initial comparative analyses. Lead chemistries identified in our in vivo screen have been evaluated in the cockroach and termite assays.

The test system of data set [12] is adult male Blatella germanica. Nature of the data set: Cockroach contact assay (topical application). The data set is classed as in vivo. The note with it: 200 mM compound. A digest of the protocol:
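Adult male German cockroaches (Blatella germanica) were dosed by topical application of compound to the ventral thorax, giving an effective dose of 50-80 μg depending on compound. Each test was a single-point dose run in triplicate in 24-well plates. Insects were incubated at 22° C. and scored for mortality, with commercial insecticides included as positive controls.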

For data set [13], the system named is adult male Blatella germanica. As to the kind of experiment: Cockroach assay of Table 16 (title contact assay, text feeding assay). Type of data set: in vivo. The note with it: 200 mM compound.
The subject of data set [14] is Ae. aegypti L3 larvae. Nature of the data set: Ae. aegypti L3 concentration response and time course assays. The data set is classed as in vivo, Aedes aegypti. The settings on record: for LC50: Aedes aegypti. The protocol:
Briefly, chemistries were diluted to appropriate concentration in water and added to the wells of 24-well plates containing 5 L3 stage Ae. aegypti larvae to achieve a final concentration of 400, 200, 100, 50 and 25 μM in 1 ml sterile RO water. Chemistries were tested in quadruplicate at each concentration. […] Results reported here represent a minimum of three independent CRC experiments (i.e., n=3).

The target in data set [15] is T1, AaDOP2. As to the kind of experiment: HTRF cAMP accumulation concentration response assay (Cisbio Dynamic 2). The data set is classed as cell-based. (In general: In TR-FRET formats the signal depends on donor and acceptor labels being close together.)
[16] abbreviates: 0.5 h, read-out: percent mortality 0.5 hr, 400 uM, L3 larvae, value for this scoring time.
Where [17] appears, read: 1 h, read-out: percent mortality 1 hr, 400 uM, L3 larvae, per scoring time.
The mark [18] stands for this setting: 2 h, read-out: percent mortality 2 hr, 400 uM, L3 larvae, per scoring time.
Where [19] appears, read: 3 h, read-out: mortality within three hours, 400 μM, L3 larvae.
Setting [20] is: 3 h, read-out: percent mortality 3 hr, 400 uM, L3 larvae, per scoring time.
Where [21] appears, read: 4 h, read-out: percent mortality 4 hr, 400 uM, L3 larvae, per scoring time.
[22] abbreviates: 24 h, read-out: percent mortality 24 hr, 400 uM, L3 larvae, per scoring time.
The mark [23] stands for this setting: 48 h, read-out: Toxicity to Aedes aegypti larvae (mortality) 48 hours, 400 μM, L3 larvae, three independent experiments.
The mark [24] stands for this setting: 48 h, read-out: percent mortality 48 hr, 400 uM, L3 larvae, per scoring time.
[25] abbreviates: 72 h, read-out: Cumulative % Mortality (72 hrs), 400 uM, L3 larvae.
Where [26] appears, read: 72 h, read-out: Toxicity to Aedes aegypti larvae (mortality) 72 hours, 400 μM, L3 larvae, three independent experiments.
Where [27] appears, read: 72 h, read-out: percent mortality 72 hr, 400 uM, L3 larvae, per scoring time.
[28] abbreviates: AaDOP2 expressing cells in the presence of dopamine, No Inhibition = <10% inhibition at 3 μM test compound, read-out: IC50 ± S.E.M. (nM), HTRF cAMP assay.

Read-outs that look alike come from different tables or passages of the source.

A word on the mortality: it is the share of the test organisms that died. In general, inhibition refers to how much of the control response was suppressed. In general, LC50 refers to the concentration lethal to half of the exposed cells or organisms. A low value points to a more lethal substance.

T1 sequence (H6D5H2 entry or part of it): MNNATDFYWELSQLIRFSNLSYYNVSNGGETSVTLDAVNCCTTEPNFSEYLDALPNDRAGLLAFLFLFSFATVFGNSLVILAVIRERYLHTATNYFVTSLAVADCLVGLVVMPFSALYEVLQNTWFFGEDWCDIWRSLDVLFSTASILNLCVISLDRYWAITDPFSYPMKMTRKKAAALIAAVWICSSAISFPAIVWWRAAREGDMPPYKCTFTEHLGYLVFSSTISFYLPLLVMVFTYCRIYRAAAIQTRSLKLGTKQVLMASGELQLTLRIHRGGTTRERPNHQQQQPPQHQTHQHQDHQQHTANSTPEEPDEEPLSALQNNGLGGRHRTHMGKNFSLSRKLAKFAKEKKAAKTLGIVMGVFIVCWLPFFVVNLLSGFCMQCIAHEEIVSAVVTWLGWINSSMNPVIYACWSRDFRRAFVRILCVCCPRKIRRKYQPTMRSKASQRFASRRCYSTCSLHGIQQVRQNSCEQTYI
T3 sequence (A0ACM8DGL0 entry or part of it): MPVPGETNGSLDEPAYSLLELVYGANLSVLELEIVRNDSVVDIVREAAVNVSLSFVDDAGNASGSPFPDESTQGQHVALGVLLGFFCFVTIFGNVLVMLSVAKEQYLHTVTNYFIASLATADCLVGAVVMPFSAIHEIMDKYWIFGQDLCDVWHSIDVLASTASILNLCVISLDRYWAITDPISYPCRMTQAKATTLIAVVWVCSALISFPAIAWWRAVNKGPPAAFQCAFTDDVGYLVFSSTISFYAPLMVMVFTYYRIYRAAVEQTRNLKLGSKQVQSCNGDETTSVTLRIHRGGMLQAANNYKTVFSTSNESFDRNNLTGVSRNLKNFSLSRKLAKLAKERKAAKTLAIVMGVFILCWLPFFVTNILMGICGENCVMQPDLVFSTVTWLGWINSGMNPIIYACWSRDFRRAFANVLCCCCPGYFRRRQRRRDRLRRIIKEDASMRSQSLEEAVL
T2 sequence (P21728 whole entry): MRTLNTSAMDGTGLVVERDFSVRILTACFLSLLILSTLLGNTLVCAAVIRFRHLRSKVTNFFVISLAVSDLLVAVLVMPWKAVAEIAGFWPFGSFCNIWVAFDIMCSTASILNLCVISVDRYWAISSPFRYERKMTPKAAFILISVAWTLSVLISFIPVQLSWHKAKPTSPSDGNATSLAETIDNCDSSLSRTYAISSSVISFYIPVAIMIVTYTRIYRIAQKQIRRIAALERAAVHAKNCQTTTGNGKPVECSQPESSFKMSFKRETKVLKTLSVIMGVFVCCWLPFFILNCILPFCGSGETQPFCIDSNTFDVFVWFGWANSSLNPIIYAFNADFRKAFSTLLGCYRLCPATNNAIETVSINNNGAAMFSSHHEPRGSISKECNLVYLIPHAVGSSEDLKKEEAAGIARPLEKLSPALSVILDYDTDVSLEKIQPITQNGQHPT

`CSc1ccc2c(c1)C(N1CCN(C)CC1)Cc1ccccc1S2` (stereo not drawn) [Methiothepin, (1-methyl-4-(8-(methylthio)-10,11-dihydrodibenzo-[b,f]thiepin-10-yl)piperazines)]: the IC50 in data set [1] was found to be 950 nM; in [5], 80 ± 11 nM; in data set [6], 14 ± 5.1 nM; in data set [8], 85 nM. The “Relative fold selectivity for AaDOP2 vs. hD1” value in data set [2] was 5.7 fold. In addition, the mortality at 400 µM in data set [3] (setting [16]) was 10%; in data set [3] (setting [17]), 0%; in data set [3] (setting [18]), 20%; in [3] (setting [19]), over 70%; in data set [3] (setting [20]), 0%; in data set [3] (setting [21]) it was 0%. Also, the mortality at 400 µM was determined as 0% in data set [3] (setting [22]); 100% in [3] (setting [23]); 0% in data set [3] (setting [24]); 100% in [3] (setting [25]); 100% in data set [3] (setting [26]); 0% in data set [3] (setting [27]). Further, the “% of the SCH23390 effect” value in [4] amounted to 99%. Besides, in data set [7], the inhibition at 10 µM was determined as 100%. Moreover, in [9], the “Toxicity to Aedes aegypti larvae (mortality) 24 hours” value was found to be 100%.

On to `Oc1ccc(C=Cc2cc(O)cc(O)c2)cc1` [Resveratrol], for which the “% of the SCH23390 effect” value in [4] is 89%. Also, in data set [6], the IC50 is at least 10000 nM. Moreover, in data set [7], the inhibition at 10 µM was found to be 100%.

Regarding `CN(C)CCC=C1c2ccccc2COc2ccccc21` (mixture of isomers) [Doxepin, ((Z)-3-(dibenzo[b,e]oxepin-11(6H)-ylidene)-N,N-dimethylpropan-1-amine)], in [10] (24 h), the mortality at 400 µM was found to be 57%. Moreover, in [7], the inhibition at 10 µM was found to be 87%.

`CN(C)CCC=C1c2ccccc2CCc2ccccc21` [Amitriptyline, (3-(10,11-dihydro-5H-dibenzo[a,d][7]annulen-5-ylidene)-N,N-dimethylpropan-1-amine)]: the IC50 in [1] was 77000 nM; in data set [2], 14 nM; in data set [5] (read-out: IC50 value (at 100 nM dopamine for hD1), 100 nM dopamine, direct cAMP accumulation), 470 ± 49 nM; in data set [15] (setting [28]) it was 6.5 ± 0.92 nM; in data set [15] (Avg IC50 (μM), in vitro Concentration Response Curve assay, n = 2, relative to control antagonist Amitriptyline), 7 nM; in data set [8], 2900 nM. The “Relative fold selectivity for AaDOP2 vs. hD1” value in [2] (ratio of IC50 values hD1/AaDOP2) amounted to 36 fold. Also, the mortality at 400 µM was 63% in [3] (24 h, read-out: Toxicity to Aedes aegypti larvae (mortality) 24 hours, 400 μM, L3 larvae, three independent experiments); 87% in [3] (setting [23]); 93% in data set [3] (setting [26]); 93% in [10] (400 μM, L4 larvae, 24 hours post-treatment). Moreover, the “% of the SCH23390 effect” value in data set [4] is 90%. Further, the mortality at 100 µM was determined as 40% in data set [11] (24 h, read-out: % Mortality 24 hrs) and 70% in [11] (240 h, read-out: % Mortality 240 hrs). Moreover, the mortality at 100000 µM was 40% in data set [11] (48 h, read-out: % Mortality 48 hrs); 60% in data set [11] (72 h, read-out: % Mortality 72 hrs); 70% in data set [11] (120 h, read-out: % Mortality 120 hrs). The “% Mortality 24 hrs” value turned out to be 5% in [12] and 3% in data set [13]. Further, the “% Mortality 48 hrs” value in data set [12] and in [13] was 20% throughout. Also, the “% Mortality 72 hrs” value worked out at 25% in [12] and 23% in data set [13]. Further, the “% Mortality 120 hrs” value in [12] and in data set [13] was 30% each time. Also, the “% Mortality 240 hrs” value in data set [12] turned out to be 35%. The compound further returned an LC50 in data set [14] of 78000 nM. The inhibition at 10 µM in [7] stood at 87%.

With `OCCN1CCN(CC/C=C2/c3ccccc3Sc3ccc(C(F)(F)F)cc32)CC1` [cis-(Z)-Flupenthixol, ((Z)-2-(4-(3-(2-(trifluoromethyl)-9H-thioxanthen-9-ylidene)propyl)piperazin-1-yl)ethanol)], the IC50 in data set [1] was determined as 3700 nM; in data set [2] it was 20 nM; in [15] (setting [28]), 0.35 ± 0.07 nM; in data set [8], 870 nM. The mortality at 400 µM in data set [3] (setting [16]) is 10%; in [3] (setting [17]), 30%; in data set [3] (setting [18]) it was 10%; in data set [3] (setting [19]), over 70%; in data set [3] (setting [20]), 10%; in data set [3] (setting [21]), 0%. Further, the mortality at 400 µM was 0% in data set [3] (setting [22]); 100% in data set [3] (setting [23]); 0% in data set [3] (setting [24]); 100% in [3] (setting [25]); 100% in [3] (setting [26]); 0% in data set [3] (setting [27]). Besides, in data set [4], the “% of the SCH23390 effect” value turned out to be 88%. For the same compound, the “mortality of adult termites” value in [11] (in vivo) was 70-100%. For the same compound, the figures for the “% Mortality 24 hrs” value in data set [12] and in data set [13] were 10% and 3%, respectively. Further, the “% Mortality 48 hrs” value in data set [12] and in data set [13] was 10% each time. Also, the “% Mortality 72 hrs” value in [12] and in data set [13] was 10% throughout. Further, the “% Mortality 120 hrs” value in data set [12] and in data set [13] was 20% in each case. Moreover, the “% Mortality 240 hrs” value in [12] was 20%. Besides, the “LT50” value in [14] (400 μM, L3 larval time course assay) amounted to 54 min. Besides, the LC50 in data set [14] was found to be 88000 nM. The inhibition at 10 µM in data set [7] came out at 92%. Further, in data set [9] (listed as Cis-flupenthixol), the “Toxicity to Aedes aegypti larvae (mortality) 24 hours” value came to 100%.

(Values after patent publication US20140350081A1, “INSECT G-COUPLED RECEPTORS USEFUL AS TARGETS FOR INSECTICIDES AND COMPOUNDS AND REAGENTS IDENTIFIED USING THE SAME” (priority 2011, published 2014).)
